Tested on: ketaminanästhesierten Katze
Experiment: Effect on venous capacity (plethysmograph) and mean arterial pressure in the anaesthetised cat
Format: in vivo
Conditions: Dosis 0,1 mg/kg i.v., ketamine-anaesthetised cat
Excerpt: Die Wirkung der erfindungsgemäßen Stoffe auf die Venenkapazität wird an der narkotisierten Katze mittels eines Plethysmographen gemessen. Als Vergleich wird in jedem Versuch als Standardsubstanz Natrium-Nitroprussid untersucht.

CCOc1ccc2c(c1)CCN1CCC(Nc3ccccc3NC(C)=O)CC21 (single isomer, unassigned) [Beispiel 26]
art.Mitteldruck: Ø

— EP0203441A2, “Substituted benzoquinolizines, process for their preparation and their use as medicaments” (BAYER AG, priority 1985, dated 1986)
